The source made the active and inactive calls. The rule behind the calls is not given here.

Results on 6 compounds are retold here after ChEMBL document CHEMBL5214991, “Discovery of 4-methyl-3-(pyridin-2-ylamino)benzamide derivatives as C-Abl inhibitors with potential neuroprotective effect” (Bioorg Med Chem, 2022).

Data set [1] in a line: Cytotoxicity against human SH-SY5Y cells incubated for 48 hrs and measured by MTT assay. The class given is toxicity, cell-based.
The subject of data set [2] is SH-SY5Y. In words: Neuroprotective activity against MPP+-induced cell death in human SH-SY5Y cells assessed as increase in cell viability at 0.08 to 20 uM measured after 48 hrs by propidium iodide staining method. Format: functional, cell-based. Conditions: dose 0.08-20 µM.
Data set [3] in a line: Cytotoxicity against rat H9c2 cells incubated for 48 hrs and measured by MTT assay. The class given is toxicity, cell-based.
Data set [4] is described as follows: Cytotoxicity against HEK293 cells incubated for 48 hrs and measured by MTT assay. The class given is toxicity, cell-based. Conditions: human.
A short description of data set [5]: Cytotoxicity against human L02 cells incubated for 48 hrs and measured by MTT assay. The class given is toxicity, cell-based.
Data set [6] is described as follows: Oral bioavailability in male Sprague-Dawley rat at 20 mg/kg measured by LC-MS/MS analysis. Conditions: in vivo. Format: ADME, organism-based.
A short description of data set [7]: MRT (0 to infinity) in male Sprague-Dawley rat at 5 mg/kg, iv measured by LC-MS/MS analysis. Conditions: in vivo. The class given is ADME, organism-based.
Data set [8] in a line: Ratio of drug concentration in brain to plasma in male Sprague-Dawley rat at […], iv measured by LC-MS/MS analysis. Format: ADME, organism-based. Conditions: dose 5 mg/kg, read-out: BPR.
Data set [9] can be described thus: Volume of distribution at steady state in male Sprague-Dawley rat at 5 mg/kg, iv measured by LC-MS/MS analysis. Conditions: in vivo, read-out: Vdss. The class given is ADME, organism-based.
Data set [10] is described as follows: Clearance in male Sprague-Dawley rat at 5 mg/kg, iv measured by LC-MS/MS analysis. Conditions: in vivo. Format: ADME, organism-based.
A short description of data set [11]: AUC (0 to t) in male Sprague-Dawley rat at 20 mg/kg, po measured by LC-MS/MS analysis. Format: ADME, organism-based. Details: dose 20 mg/kg, route po. Conditions: in vivo.
Data set [12] in a line: Half-life in male Sprague-Dawley rat at 5 mg/kg, iv measured by LC-MS/MS analysis. Format: ADME, organism-based. Conditions: in vivo.
Data set [13] can be described thus: MRT (0 to infinity) in male Sprague-Dawley rat at 20 mg/kg, po measured by LC-MS/MS analysis. Format: ADME, organism-based. Conditions: in vivo.
Data set [14] is described as follows: MRT (0 to t) in male Sprague-Dawley rat at 20 mg/kg, po measured by LC-MS/MS analysis. Format: ADME, organism-based. Conditions: in vivo.
Data set [15] can be described thus: AUC (0 to t) in male Sprague-Dawley rat at 5 mg/kg, iv measured by LC-MS/MS analysis. The class given is ADME, organism-based. Conditions: in vivo. Details: dose 5 mg/kg, route iv.
The nature of data set [16]: Tmax in male Sprague-Dawley rat at 20 mg/kg, po measured by LC-MS/MS analysis. Format: ADME, organism-based. Conditions: in vivo.
Data set [17] can be described thus: Half-life in male Sprague-Dawley rat at 20 mg/kg, po measured by LC-MS/MS analysis. Format: ADME, organism-based. Conditions: in vivo.
Data set [18] has as its system SH-SY5Y. In words: Neuroprotective activity against MPP+-induced cell death in human SH-SY5Y cells assessed as reduction in apoptosis at 1.25 to 5 uM measured after 48 hrs by propidium iodide staining method. The class given is functional, cell-based. Conditions: dose 1.25-5 µM.
Data set [19] can be described thus: AUC (0 to infinity) in male Sprague-Dawley rat at 20 mg/kg, po measured by LC-MS/MS analysis. Format: ADME, organism-based. Details: time infinity, dose 20 mg/kg, route po. Conditions: in vivo.
Data set [20] can be described thus: Cmax in male Sprague-Dawley rat at 20 mg/kg, po measured by LC-MS/MS analysis. Conditions: in vivo. Details: dose 20 mg/kg, route po. The class given is ADME, organism-based.
The nature of data set [21]: MRT (0 to t) in male Sprague-Dawley rat at 5 mg/kg, iv measured by LC-MS/MS analysis. The class given is ADME, organism-based. Conditions: in vivo.
Data set [22] in a line: AUC (0 to infinity) in male Sprague-Dawley rat at 5 mg/kg, iv measured by LC-MS/MS analysis. Conditions: in vivo. Details: time infinity, dose 5 mg/kg, route iv. Format: ADME, organism-based.

Regarding `Cc1ccc(C(=O)Nc2ccc(CN3CCN(C)CC3)c(C(F)(F)F)c2)cc1Nc1cc(-c2cccnc2)ccn1`, the IC50 at 48 h came out at 19 µM in [1], 9.12 µM in [3], 14 µM in [4] and 37.4 µM in data set [5]. Moreover, in the data set on SH-SY5Y [2], the outcome was Active.

As to `Cc1ccc(C(=O)Nc2cc(-c3cnn(C)c3)cc(C(F)(F)F)c2)cc1Nc1cc(-c2cncnc2)ccn1`, the IC50 at 48 h in data set [1], in [3], in data set [4] and in data set [5] was over 80 µM in each case. For the same compound, the result in the data set on SH-SY5Y [2] was Active.

In the case of `Cc1cn(-c2cc(NC(=O)c3ccc(C)c(Nc4nccc(-c5cccnc5)n4)c3)cc(C(F)(F)F)c2)cn1` [NILOTINIB], the IC50 at 48 h in [1] was 38.5 µM; in data set [3] it was 21.3 µM; in data set [4], 8.4 µM; in [5] it was 40.4 µM. Further, in the data set with SH-SY5Y [2], the result was Active. The compound also came in with a bioavailability in data set [6] of 27.1%.

With `Cc1ccc(C(=O)Nc2cc(-c3cnn(C)c3)cc(C(F)(F)F)c2)cc1Nc1cc(-c2cccnc2)ccn1`, the MRT inf is 5.29 h in data set [7] and 5.93 h in data set [13]. The Kp in data set [8] is 4. The IC50 at 48 h in data set [1], in [3], in data set [4] and in data set [5] was over 80 µM in each case. Moreover, the outcome with SH-SY5Y [2] and with SH-SY5Y [18] was Active. Moreover, in data set [9], the Vd came to 5.36 L/kg. The same compound returned a bioavailability in data set [6] of 47.6%. The clearance in data set [10] came to 17.7 mL/min/kg. Moreover, the AUC(0-t) in [11] turned out to be 9890 ng·h/mL; in data set [15], 5120 ng·h/mL. The values for the half-life in data set [12] and in data set [17] were 3.62 h and 3.54 h, respectively. For the same compound, the MRT last is 5.9 h in data set [14] and 5.29 h in data set [21]. Further, in data set [16], the Tmax stood at 2.33 h. Also, the AUC(0-inf) stood at 9900 ng·h/mL in data set [19] and 5200 ng·h/mL in [22]. For the same compound, the Cmax in [20] stood at 1380 ng/mL.

With `Cc1ccc(C(=O)Nc2ccc(CN3CCN(C)CC3)c(C(F)(F)F)c2)cc1Nc1cc(-c2cncnc2)ccn1`, the IC50 at 48 h amounted to 12 µM in data set [1], 16.7 µM in [3], 17.1 µM in data set [4] and 30.1 µM in [5]. In addition, in the data set with SH-SY5Y [2], the outcome was Active.

Regarding `Cc1cn(-c2cc(NC(=O)c3ccc(C)c(Nc4cc(-c5cccnc5)ccn4)c3)cc(C(F)(F)F)c2)cn1`, the IC50 at 48 h in [1], in data set [3], in data set [4] and in data set [5] was over 80 µM throughout. Besides, the outcome in the data set with SH-SY5Y [2] was Active.
